Laboratory results taken from patent US10808247B2, “Methods for treating neurological disorders using a synergistic small molecule and nucleic acids therapeutic approach” (Phio Pharmaceuticals Corp., priority 2015, dated 2020).

Columns and labels:
MnSOD [1] = experiment: MnSOD activity in primary neurons (modified commercial kit); format: cell-based; details: 3 mM SYN1 or 300 nM SYN2 for 24 h
Procedure: (§1) FIGS. 4A-4F. SYN1 and SYN2 increase the expression and activity of NF-κB target genes, such as MnSOD in neurons. […] A commercially available kit, modified to detect MnSOD activity in primary neurons, was used. Neurons were exposed to 3 mM SYN1 or 300 nM SYN2 for 24 h. […] TNF-α was included as a reference. FIGS. 4B, 4D and 4F show SYN1 and SYN2 increase MnSOD protein expression. Mature primary neurons (FIG. 4B), SH-SY5Y cells (FIG. 4D), and NSC-34 cells (FIG. 4F) were treated for 24 h with the compounds. Thereafter, cells were lysed, and proteins were extracted and subjected to SDS-PAGE. Immunoblots were then performed following the instructions of the antibody manufacturer. ECL was used for detection. […] The effect of TNF exposure is provided for reference. […] Primary cortical neurons at 6 D.I.V. were pretreated for 24 h with compounds and then challenged with 80 μM of H2O2. […] SYN1 at 3 μM inhibited cell death by 100%. […] The protection exceeded 60% and extended up to a concentration of 1 μM. […] NSC-34 cells were treated for 24 h with the compounds. Thereafter, cells were lysed, and cytosolic and nuclear fractions were separated. Subsequently, SDS-PAGE and immunoblots were performed. ECL was used for detection. […] The effect of TNF exposure was provided for reference. […] ANOVA+Bonferroni's.

MnSOD [2] = experiment: MnSOD protein expression by immunoblot in neurons; format: cell-based; details: 24 h; for MnSOD expression by Western blot: NSC-34 cells; for MnSOD protein expression: mature primary neurons, SH-SY5Y cells and NSC-34 cells
Procedure: as §1

Primary cortical neurons = experiment: Neurotoxicity induced by H2O2 in primary cortical neurons; format: cell-based; details: 24 h pretreatment, 80 μM H2O2
Procedure: as §1

NF-κB p65 = NF-κB p65 nuclear translocation in NSC-34 immortalized motoneurons, immunoblot; format: cell-based; details: NSC-34 cells, 24 h
Procedure: as §1

SOD-1-G93A ALS mouse = experiment: SOD-1-G93A ALS mouse: survival, weight, neurologic score; format: in vivo; details: for survival (Kaplan-Meier analysis): administration at the time of onset; for body weight lost / inhibition of body weight loss: at 120 days; for inhibition of body weight loss: versus control animals; for lifespan extension at 50% survival: male mice, 25 mg/kg IP daily from day 96
Procedure: FIGS. 6A-6D. Effect of SYN1 and SYN2 in SOD-1-G93A ALS mouse. The animals were received at day 70 and kept until day 96, at which time daily IP treatment was started with 25 mg/kg of the compounds. Weight and standard neurologic scores (N.S.) were assessed on alternate days. A N.S. of 4 triggered the exception (euthanized accordingly to humane practices). […] Data in FIGS. 6A and 6B document a 66% and an 81% lifespan extension for SYN1 and SYN2, respectively, at 50% survival in male mice. […] The average weight within the groups before the treatment was similar (inset to FIG. 6C). However, at 120 days, control animals lost on average 12% of the body weight (FIG. 6C). […] Although progression from N.S. 0 to 1 was delayed only by SYN1 (2 day delay, +30%), progression to higher N.S. was delayed by both agents (FIG. 6D). […] Control animals reached N.S.=2 at 30 days on average; treated animals reached N.S.=2 at day 46 or later on average. *P<0.05; **P<0.01.

HSP-dependent mRNAs = experiment: Cytoplasmic chaperone expression by qPCR in SH-5YSY; format: cell-based; details: 24 h treatment
Procedure: (§2) FIG. 5. Effect of SYN1 on cytoplasmic chaperones expression. The expression of the genes listed in the graph was assessed using qPCR in SH-5YSY after 24 h treatment with SYN1.

HSP27 = experiment: as above; format: cell-based; details: 24 h treatment
Procedure: as §2

HSP70-2 = experiment: as above; format: cell-based; details: 24 h treatment
Procedure: as §2

SMILES | MnSOD activity (MnSOD [1]) | MnSOD expression by Western blot (MnSOD [2]) | MnSOD protein expression (MnSOD [2]) | concentration of peak effect (Primary cortical neurons) | concentration up to which protection extended (Primary cortical neurons) | protection (Primary cortical neurons) | p65 nuclear presence (NF-κB p65) | time spent at N.S.1 (SOD-1-G93A ALS mouse; 25 mg/kg IP daily) | survival (Kaplan-Meier analysis) (SOD-1-G93A ALS mouse; 25 mg/kg IP daily) | body weight lost (SOD-1-G93A ALS mouse; 25 mg/kg IP daily) | inhibition of body weight loss (SOD-1-G93A ALS mouse) | lifespan extension at 50% survival (SOD-1-G93A ALS mouse) | inhibition of cell death (Primary cortical neurons; 3 μM) | HSP-dependent mRNAs (HSP-dependent mRNAs) | HSP27 gene expression (HSP27) | HSP70-2 gene expression (HSP70-2) | delay of progression from N.S. 0 to 1 (SOD-1-G93A ALS mouse; 25 mg/kg IP daily) | delay of progression from N.S. 0 to 1, relative (SOD-1-G93A ALS mouse; 25 mg/kg IP daily)
Cc1cccnc1Nc1nc(-c2ccccn2)cs1 [SYN2] | significantly increased | increased expression of MnSOD | increased MnSOD expression in all three kinds of neurons | 300 nM | ≤ 1 µM | exceeded 60% | increased p65 nuclear presence | increased the time spent at N.S.1 | significantly extended survival | 4% | 65% | 81% | – | – | – | – | – | –
O=C(/C=C/Nc1ccccc1Br)c1ccc2c(c1)OCO2 [SYN1] | significantly increased | increased expression of MnSOD | increased MnSOD expression in all three kinds of neurons | – | – | – | increased p65 nuclear presence | increased the time spent at N.S.1 | significantly extended survival | 3% | 75% | 66% | 100% | significantly increased | significantly up-regulated | significantly up-regulated | 2 days | 30%
